# Where “and” joins values, the source holds several entries; their conditions need not be identical. Identical values can stand only once.
# Experiments:
# [1] = system: FaDuDD tumors; assay: BIWI 1 combination with docetaxel in nude mice xenografted with FaDuDD tumors; assay type: in vivo, mouse
# Description: The antibody solution was injected into the tail vein with an injection volume of 200 μl for a 25 g mouse. In the control groups without BIWI 1 treatment animals were injected i.v. with PBS. […] The solution was injected into the tail vein with an injection volume of 200 μl for a 25 g mouse. […] The solution was injected into the tail vein with an injection volume of 200 μl for a 25 g mouse.
# Tumor sizes and body weights were recorded 2-3 times per week. Tumor sizes were measured with a calliper (length and width) and the volume was calculated according to the following formula: volume (length)×(width)^2×([…]). The tolerability of the treatment was monitored by measuring mouse weight during the whole observation period. […] For calculation of the mean tumor volumes per group, the last values of tumor size for individual animals were carried forward in case that these animals had to be sacrificed due to large tumor burden before the whole group was terminated. In addition to the absolute tumor volume in mm^3, the relative tumor volumes (RTV) were calculated as follows:
# RTV=(tumor volume at day x)/(tumor volume at start of treatment)×100 For the evaluation of treatment efficacy the following parameters were calculated: • T/C (%)=(mean RTV of treated group)/(mean RTV of control group)×100 • T4T (tumor quadrupling time)=time until the mean RTV reaches 400% • GDF4 (growth delay factor)=T4T treated/T4T control.
# In addition, for some experiments, the mean time for tumors to reach 8 times (T8T) their initial sizes were also calculated. The growth delay factor (GDF8) was then calculated accordingly. Percentages of mean relative tumor volumes of treated versus control groups (T/C) were calculated on the days indicated. For statistical evaluation of combination therapies exact Wilcoxon tests were used. Tolerability was assessed by monitoring body weight changes.
# To assess the efficacy of BIWI 1 in combination with the taxane docetaxel (Taxotere), non-curative doses of both drugs were tested as single agents or in combination in nude mice xenografted with FADuDD tumors. In pilot experiments a dose of 3 mg/kg docetaxel (q7dx4) was determined to be non-curative in this model. BIWI 1 was used at the non-curative dose of 200 μg/kg DM 1 and at a somewhat higher dose (300 μg/kg DM1).
# The effect was somewhat more pronounced in the two BIWI 1 monotherapy treatment groups with T/C 41-30% and GDF4: 2.8-4.4. Complete tumor regression could be observed in 1/8 cases with the higher BIWI 1 dose. […] Treatment was well tolerated in all groups, except for a slight unexplained weight loss (approx. −5%) in the docetaxel monotherapy group.
# [2] = Tolerability of BIWI 1 monotherapy in nude mice (mouse weight); assay type: in vivo; conditions: FaDu xenografted mice, 21 mg/kg/d BIWI 1
# Description: In vivo anti-tumor efficacy of BIWI 1 was tested in three nude mouse xenograft models applying antigen-positive human tumors: A431 (ATCC # CRL 1555; epidermoid carcinoma of the vulva), FaDu (ATCC # HTB 43; squamous cell carcinoma of the pharynx), and MDA-MB 453 (ATCC # HTB-131; breast carcinoma). The cells were received from ATCC and cultured in RPMI1640 medium containing 10% fetal calf serum and supplements. 1×10^6 tumors cells were transplanted subcutaneously into the right flank of 6 week old female NMRI-nu/nu mice. Tumor growth was monitored by measuring tumor size. A tumor response was rated as complete response when the tumor completely disappeared at any time after start of treatment. The response was rated as partial response when the tumor volume decreased after treatment but thereafter started regrowing. The tolerability of the treatment was monitored by measuring mouse weight during the observation period.
# The tolerability of BIWI 1 monotherapy was determined by monitoring mouse weight during the whole duration of the experiment in the 2 models. The maximum observed average weight loss per group was 6% in FaDu xenografted mice treated with 21 mg/kg/d BIWI 1 (FIG. 5). The weight loss started around day 3 of treatment and lasted until day 10, thereafter animals regained weight and behaved similar as control animals. […]
# [3] = system: antigen-positive cell line FaDu; assay: In vitro cytotoxicity, MTS/PMS cell proliferation assay, FaDu; assay type: cell-based, human; conditions: FaDu cells, 4 days exposure
# Description: For determination of viable cells the Cell Titer 96® AQueous non-radioactive cell proliferation assay (Promega) was used. Five thousand cells per well were seeded into 96-well plates in 90 μl medium without phenole red. Cells were allowed to settle down for 1 to 3 h and then serial dilutions of the immunoconjugate in 10 μl PBS were added. Cells without immunoconjugate served as negative control. Cells were incubated for 4 days at 37° C. in a humified 5% CO2 atmosphere and then 20 μl MTS/PMS were added according to the manufacturer's recommendation. After additional 1 to 4 h incubation at 37° C. the absorbance at 490 nm was recorded using an ELISA plate reader. For each cell line triplicates were analyzed. The percentage of the surviving cell fraction and the IC50 value were calculated using the GraphPad Prism® (Version 3.0) software.
# The in vitro cytotoxicity of BIWI 1 was evaluated using the antigen-positive cell lines A431 and FaDu, and the antigen-negative cell line […]. Cells were exposed to different concentrations of BIWI 1 for 4 days, then stained with MTS/PMS and assayed on an ELISA plate reader. The surviving fractions of cells were then calculated using the GraphPad Prism® software package.
# [4] = system: MDA-MB-453 tumors; assay: BIWI 1 combination with doxorubicin in nude mice xenografted with MDA-MB-453 tumors; assay type: in vivo, mouse
# Description: Similar experiments as outlined under Section 2.6 were undertaken in a human breast carcinoma xenograft model. Experiments were performed using nude mice xenografted subcutaneously with the human breast carcinoma cell line MDA-MBA53. […] The efficacy of these combinations was compared to those of the respective monotherapies by i) analysing the tumor volumes over time and ii) by determining the time for tumors to reach a certain size (tumor growth delay).
# The dilutions were prepared freshly for each application or stored at +4° C. during the whole treatment period. […] Doxorubicin (Doxorubicin “Ebewe”®, 2 mg/ml) was diluted in PBS. 200 μl of solutions with different concentrations were injected into the tail vein. Docetaxel (Taxotere®, Aventis, 10 mg/ml) was diluted in 0.9% NaCl. 200 μl of solutions with different concentrations were injected into the tail vein.
# The xenograft model was handled slightly different as outlined under Section 2.1. Briefly, 1×10^7 MDA-MB-453 cells (ATCC No. HTB-131) were injected into the mammary fat pad of female NMRI nu/nu mice. After reaching a volume of approximately 1000 mm^3 tumors were excised, cut into 4×4 mm pieces and passaged further subcutaneously. Tumor fragments were cryoconserved in 90% RPMI 1640/10% dimethylsulfoxide (slow freezing process down to −80° C., storage in liquid nitrogen). For further passaging, frozen tumor fragments were thawed, washed 3 times in PBS and implanted subcutaneously into the right and left flanks of a 4-5 female NMRI nu/nu mice. Tumors of these mice were then used to prepare the animals for a therapy experiment. Tumors were excised with a size of approximately 10 mm in diameter, cut into 2×2 mm pieces and implanted subcutaneously into the right flank of 6-8 week old female NMRI nu/nu mice. Approximately twice as many animals as needed for the experiment were prepared. When tumors reached a size of 5-10 mm in diameter (10-14 days after implantation), animals were randomised and treatments were started. Animals were obtained from Harlan (Germany) or M&B (Denmark). Tumor sizes and body weights were recorded as described in Section 2.7.
# [5] = BIWI 1 200 μg/kg DM1 i.v. q7dx4
# [6] = BIWI 1 300 μg/kg DM1 i.v. q7dx4
substance,measurement,setting,value
BIWI 1,GDF4,[1]; [5],2.8
same,T4T,[1]; [5],20.1 days
same,T/C (d 16),[1]; [5],41%
same,complete tumor regression,[1]; BIWI 1 300 μg/kg DM1 (higher dose) q7dx4,1/8
same,GDF4,[1]; [6],4.4
same,T4T,[1]; [6],31.1 days
same,T/C (d 16),[1]; [6],30%
same,maximum observed average weight loss per group,[2],6%
same,IC50,[3],~0.024 µM
same,GDF4,[4]; BIWI 1 50 μg/kg DM1 i.v. q7dx4,1.0
same,T/C (d13),[4]; BIWI 1 50 μg/kg DM1 i.v. q7dx4,68%
same,GDF4,[4]; BIWI 1 75 μg/kg DM1 i.v. q7dx4,1.6
same,T4T,[4]; BIWI 1 75 μg/kg DM1 i.v. q7dx4,13 days and 13.0 days
same,T/C (d13),[4]; BIWI 1 75 μg/kg DM1 i.v. q7dx4,59%
same,tumor bearing animals cured,"[4]; BIWI 1 100 μg/kg DM1, q7dx4",4/6
